Test results published in the NIST ThermoML archive (doi:10.1016/j.jct.2018.08.004).

Assay: xn = mol fraction of the nth substance listed
Details: for surface tension liquid-gas: Maximal bubble pressure; for mass density: 100 kPa, Liquid, Vibrating tube method

CCCC[n+]1ccccc1.N#C[N-]C#N [1-butylpyridinium dicyanamide] + CCCO
Details | mass density [kg/m3] | surface tension liquid-gas [mN/m]
288.15 K, x1 = 0.1001 | 872.25 | 26.5
288.15 K, x1 = 0.2008 | 919.12 | 27.9
288.15 K, x1 = 0.3008 | 954.79 | 29.5
288.15 K, x1 = 0.4009 | 982.76 | 31.7
288.15 K, x1 = 0.4994 | 1005.24 | 33.1
288.15 K, x1 = 0.5998 | 1023.96 | 35.7
288.15 K, x1 = 0.6976 | 1039.92 | 38.4
288.15 K, x1 = 0.7974 | 1052.61 | 41.2
288.15 K, x1 = 0.903 | 1064.59 | 45.8
288.15 K, x1 = 1 | 1074.97 | 56.3
293.15 K, x1 = 0.1001 | 868.53 | 26.1
293.15 K, x1 = 0.2008 | 915.57 | 27.6
293.15 K, x1 = 0.3008 | 951.37 | 29.1
293.15 K, x1 = 0.4009 | 979.42 | 31.3
293.15 K, x1 = 0.4994 | 1001.98 | 32.8
293.15 K, x1 = 0.5998 | 1020.75 | 35.3
293.15 K, x1 = 0.6976 | 1036.74 | 38
293.15 K, x1 = 0.7974 | 1049.46 | 41
293.15 K, x1 = 0.903 | 1061.47 | 45.6
293.15 K, x1 = 1 | 1071.9 | 56
298.15 K, x1 = 0.1001 | 864.79 | 25.6
298.15 K, x1 = 0.2008 | 912.01 | 27.1
298.15 K, x1 = 0.3008 | 947.94 | 28.8
298.15 K, x1 = 0.4009 | 976.09 | 31.1
298.15 K, x1 = 0.4994 | 998.72 | 32.5
298.15 K, x1 = 0.5998 | 1017.54 | 35
298.15 K, x1 = 0.6976 | 1033.57 | 37.7
298.15 K, x1 = 0.7974 | 1046.31 | 40.7
298.15 K, x1 = 0.903 | 1058.35 | 45.2
298.15 K, x1 = 1 | 1068.83 | 55.7
303.15 K, x1 = 0.1001 | 861.04 | 25.2
303.15 K, x1 = 0.2008 | 908.45 | 26.7
303.15 K, x1 = 0.3008 | 944.53 | 28.4
303.15 K, x1 = 0.4009 | 972.76 | 30.7
303.15 K, x1 = 0.4994 | 995.47 | 32.2
303.15 K, x1 = 0.5998 | 1014.34 | 34.7
303.15 K, x1 = 0.6976 | 1030.42 | 37.4
303.15 K, x1 = 0.7974 | 1043.18 | 40.4
303.15 K, x1 = 0.903 | 1055.25 | 45
303.15 K, x1 = 1 | 1065.76 | 55.5
308.15 K, x1 = 0.1001 | 857.28 | 24.7
308.15 K, x1 = 0.2008 | 904.9 | 26.4
308.15 K, x1 = 0.3008 | 941.11 | 28.1
308.15 K, x1 = 0.4009 | 969.44 | 30.4
308.15 K, x1 = 0.4994 | 992.23 | 31.7
308.15 K, x1 = 0.5998 | 1011.15 | 34.4
308.15 K, x1 = 0.6976 | 1027.27 | 37.1
308.15 K, x1 = 0.7974 | 1040.07 | 40.1
308.15 K, x1 = 0.903 | 1052.16 | 44.7
308.15 K, x1 = 1 | 1062.7 | 55.2
313.15 K, x1 = 0.1001 | 853.51 | 24.4
313.15 K, x1 = 0.2008 | 901.33 | 26
313.15 K, x1 = 0.3008 | 937.71 | 27.7
313.15 K, x1 = 0.4009 | 966.13 | 30
313.15 K, x1 = 0.4994 | 989 | 31.5
313.15 K, x1 = 0.5998 | 1007.98 | 34.1
313.15 K, x1 = 0.6976 | 1024.14 | 36.8
313.15 K, x1 = 0.7974 | 1036.96 | 39.8
313.15 K, x1 = 0.903 | 1049.09 | 44.4
313.15 K, x1 = 1 | 1059.66 | 54.9
318.15 K, x1 = 0.1001 | 849.73 | 24
318.15 K, x1 = 0.2008 | 897.78 | 25.6
318.15 K, x1 = 0.3008 | 934.3 | 27.3
318.15 K, x1 = 0.4009 | 962.85 | 29.6
318.15 K, x1 = 0.4994 | 985.79 | 31.2
318.15 K, x1 = 0.5998 | 1004.82 | 33.8
318.15 K, x1 = 0.6976 | 1021.02 | 36.6
318.15 K, x1 = 0.7974 | 1033.88 | 39.5
318.15 K, x1 = 0.903 | 1046.03 | 44.1
318.15 K, x1 = 1 | 1056.64 | 54.5

CCCC[n+]1ccccc1.N#C[N-]C#N [1-butylpyridinium dicyanamide] + CCO
Details | mass density [kg/m3] | surface tension liquid-gas [mN/m]
288.15 K, x1 = 0.0999 | 877.29 | 25.7
288.15 K, x1 = 0.201 | 930.73 | 28
288.15 K, x1 = 0.2996 | 967.04 | 30.3
288.15 K, x1 = 0.3993 | 994.22 | 33.2
288.15 K, x1 = 0.4897 | 1013.42 | 35.8
288.15 K, x1 = 0.6017 | 1032.37 | 38.3
288.15 K, x1 = 0.693 | 1044.81 | 40.9
288.15 K, x1 = 0.7974 | 1056.62 | 44.5
288.15 K, x1 = 0.905 | 1066.7 | 50.3
288.15 K, x1 = 1 | 1074.97 | 56.3
293.15 K, x1 = 0.0999 | 873.42 | 25.1
293.15 K, x1 = 0.201 | 927.12 | 27.5
293.15 K, x1 = 0.2996 | 963.57 | 29.8
293.15 K, x1 = 0.3993 | 990.86 | 32.9
293.15 K, x1 = 0.4897 | 1010.13 | 35.5
293.15 K, x1 = 0.6017 | 1029.14 | 38
293.15 K, x1 = 0.693 | 1041.62 | 40.6
293.15 K, x1 = 0.7974 | 1053.47 | 44.2
293.15 K, x1 = 0.905 | 1063.59 | 50
293.15 K, x1 = 1 | 1071.9 | 56
298.15 K, x1 = 0.0999 | 869.54 | 24.6
298.15 K, x1 = 0.201 | 923.5 | 27.1
298.15 K, x1 = 0.2996 | 960.1 | 29.5
298.15 K, x1 = 0.3993 | 987.5 | 32.6
298.15 K, x1 = 0.4897 | 1006.84 | 35.2
298.15 K, x1 = 0.6017 | 1025.91 | 37.7
298.15 K, x1 = 0.693 | 1038.43 | 40.3
298.15 K, x1 = 0.7974 | 1050.31 | 43.9
298.15 K, x1 = 0.905 | 1060.48 | 49.7
298.15 K, x1 = 1 | 1068.83 | 55.7
303.15 K, x1 = 0.0999 | 865.66 | 24.2
303.15 K, x1 = 0.201 | 919.87 | 26.7
303.15 K, x1 = 0.2996 | 956.64 | 29.1
303.15 K, x1 = 0.3993 | 984.14 | 32.3
303.15 K, x1 = 0.4897 | 1003.56 | 34.9
303.15 K, x1 = 0.6017 | 1022.7 | 37.4
303.15 K, x1 = 0.693 | 1035.25 | 40
303.15 K, x1 = 0.7974 | 1047.18 | 43.6
303.15 K, x1 = 0.905 | 1057.35 | 49.4
303.15 K, x1 = 1 | 1065.76 | 55.5
308.15 K, x1 = 0.0999 | 861.77 | 23.8
308.15 K, x1 = 0.201 | 916.25 | 26.3
308.15 K, x1 = 0.2996 | 953.18 | 28.8
308.15 K, x1 = 0.3993 | 980.79 | 31.9
308.15 K, x1 = 0.4897 | 1000.29 | 34.5
308.15 K, x1 = 0.6017 | 1019.5 | 37
308.15 K, x1 = 0.693 | 1032.09 | 39.7
308.15 K, x1 = 0.7974 | 1044.05 | 43.3
308.15 K, x1 = 0.905 | 1054.26 | 49.1
308.15 K, x1 = 1 | 1062.7 | 55.2
313.15 K, x1 = 0.0999 | 857.88 | 23.4
313.15 K, x1 = 0.201 | 912.63 | 25.9
313.15 K, x1 = 0.2996 | 949.73 | 28.3
313.15 K, x1 = 0.3993 | 977.47 | 31.4
313.15 K, x1 = 0.4897 | 997.04 | 34.1
313.15 K, x1 = 0.6017 | 1016.31 | 36.7
313.15 K, x1 = 0.693 | 1028.95 | 39.4
313.15 K, x1 = 0.7974 | 1040.95 | 43.1
313.15 K, x1 = 0.905 | 1051.18 | 48.8
313.15 K, x1 = 1 | 1059.66 | 54.9
318.15 K, x1 = 0.0999 | 853.98 | 22.7
318.15 K, x1 = 0.201 | 909.01 | 25.4
318.15 K, x1 = 0.2996 | 946.29 | 27.9
318.15 K, x1 = 0.3993 | 974.15 | 31.1
318.15 K, x1 = 0.4897 | 993.79 | 33.8
318.15 K, x1 = 0.6017 | 1013.14 | 36.4
318.15 K, x1 = 0.693 | 1025.82 | 39
318.15 K, x1 = 0.7974 | 1037.86 | 42.7
318.15 K, x1 = 0.905 | 1048.12 | 48.6
318.15 K, x1 = 1 | 1056.64 | 54.5
